{"source": "patent US20210121383A1", "about": "“COMPOSITION FOR ANTI-AGING” (MORINAGA MILK INDUSTRY CO., LTD., priority 2018, published 2021)", "system": "HepG2 cells derived from liver cancer", "test": "Test 2: quantitative evaluation of autophagy activity (CYTO-ID/Hoechst 33342 fluorescence, microplate reader)", "type": "cell-based", "settings": "100 μM compound 1 or compound 2, 24 hours (positive control 500 nM rapamycin, 16 hours), then 10 μM chloroquine 6 hours; 3 wells per group", "procedure": "The active action of autophagy of the compound 1 or the compound 2 observed in Test 1 was quantitatively detected.\nHepG2 cells derived from liver cancer in 2.5×10^4 cells were plated in a 96-well plate (manufactured by Falcon), and the culture was performed for 24 hours in DMEM containing 10% FBS under the conditions of 37° C. and a CO2 concentration of 5%. After that, the cells were cultured for 24 hours by using a medium for testing prepared in (1-1) of (1) in Test 1. Further, the culture was performed in a similar manner as in Test 1 also in the negative control and the positive control. […]\nInto each well, 100 μL of an assay buffer attached to a kit (manufactured by Enzo Life Sciences, Inc.) was added, and the fluorescence intensity was measured by using a fluorescence microplate reader, SH-9000 (manufactured by CORONA ELECTRIC Co., Ltd.). The fluorescence derived from the fluorescent probe for autophagy detection was measured under the conditions of an excitation filter of 480 nm and a fluorescence filter of 530 nm. Further, the fluorescence derived from each staining reagent was measured under the conditions of an excitation filter of 340 nm and a fluorescence filter of 480 nm.\nResults of the fluorescence intensity of the cells exposed to a compound 1 or a compound 2, which was measured by a fluorescence microplate reader, are shown in Table 1. […]"}
{"smiles": "CO[C@H]1C[C@@H]2CC[C@@H](C)[C@@](O)(O2)C(=O)C(=O)N2CCCC[C@H]2C(=O)O[C@H]([C@H](C)C[C@@H]2CC[C@@H](O)[C@H](OC)C2)CC(=O)[C@H](C)/C=C(\\C)[C@@H](O)[C@@H](OC)C(=O)[C@H](C)C[C@H](C)/C=C/C=C/C=C/1C", "note": "[Positive control, rapamycin]", "values": [{"measurement": "Autophagy induction (CYTO-ID fluorescence intensity/Hoechst 33342 fluorescence intensity)", "value": 93}]}
